This experiment concerns MOG-induced chronic EAE in C57BL/6 mice. Format: in vivo.

Description: The effect of the two formulations on MOG (myelin-oligodendrocyte-glycoprotein)-induced chronic EAE in C57BL/6 mice was examined according to the procedure described below.
Forty (40) female C57BL/6 mice had been randomly grouped into three (3) groups by body weight in this study; each group consisted of ten (10) mice. […] EAE had been induced by injection of emulsion of MOG subcutaneously on the shaved back of the mouse at three sites, followed by an intraperitoneal injection of Bordetella pertussis toxin in PBS on Day 0 and 48 hours post MOG immunization. EAE had been assessed by clinical scoring of the mice once daily from Day 0 to Day 14 post immunization. […] On Day 14, mice had been terminated.
After anesthetization by isoflurane (2-3%, inhalation), EAE had been induced by injecting 100 μL emulsion subcutaneously into the shaved backs of the mice. Bordetella pertussis toxin (200 ng in 200 μL of PBS) had been administered i.p. on the day of immunization (Day 0) and 48 hours thereafter. […]
Body weight of all mice had been recorded daily starting from Day 0 to Day 14. EAE development had been assessed by clinically scoring of the mice once daily from Day 0 to Day 14 post immunization according to a scale of 0-5 (0=normal mouse; 1=limp tail or hind limb weakness; 2=limp tail and hind limb weakness; 3=partial hind limb paralysis; 4=complete hind limb paralysis; and 5=moribund state). […]

With “L-glutamic acid polymer with L-alanine, L-lysine and L-tyrosine, acetate (salt) [GA]”, the Maximum score (clinical score scale 0-5, days 0-14, 5 mg GA/mice/day i.m. on day 0 and day 1) amounted to 0.5 ± 0.31. Moreover, the Disease duration (days 0-14, 5 mg GA/mice/day i.m. on day 0 and day 1) worked out at 0.5 ± 0.31.

The values are drawn from patent publication USRE50301E1, “Depot systems comprising glatiramer or pharmacologically acceptable salt thereof” (MAPI PHARMA LTD., priority 2010, dated 2025).
